Among the data in patent US20070082880A1 (priority 2005, published 2007) are melting point and IC50 values, retold here.

Series [1] deals with T1, human PKCθ full length enzyme (Homo sapiens, UniProt Q04759).
T1 construct: human PKCθ full length enzyme (Panvera Catalog No. P2996); purchased Panvera P2996
Briefly: PKCθ IMAP Assay. Format: biochemical. The settings on record: average value when one or more samples were tested; ATP 6 uM, PKCθ 1 nM. The method in brief: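 Full-length human PKCθ (1 nM final) with 6 uM ATP and 100 nM 5FAM-labelled peptide, 5% DMSO, 3.0 mM DTT in reaction buffer. 25 min at room temperature; IMAP bead binding 20 min, fluorescence polarization read. Compounds 2:1 serially diluted; no-ATP and no-enzyme wells as controls.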

The structures appear in SMILES notation.

T1 sequence (Q04759 whole entry): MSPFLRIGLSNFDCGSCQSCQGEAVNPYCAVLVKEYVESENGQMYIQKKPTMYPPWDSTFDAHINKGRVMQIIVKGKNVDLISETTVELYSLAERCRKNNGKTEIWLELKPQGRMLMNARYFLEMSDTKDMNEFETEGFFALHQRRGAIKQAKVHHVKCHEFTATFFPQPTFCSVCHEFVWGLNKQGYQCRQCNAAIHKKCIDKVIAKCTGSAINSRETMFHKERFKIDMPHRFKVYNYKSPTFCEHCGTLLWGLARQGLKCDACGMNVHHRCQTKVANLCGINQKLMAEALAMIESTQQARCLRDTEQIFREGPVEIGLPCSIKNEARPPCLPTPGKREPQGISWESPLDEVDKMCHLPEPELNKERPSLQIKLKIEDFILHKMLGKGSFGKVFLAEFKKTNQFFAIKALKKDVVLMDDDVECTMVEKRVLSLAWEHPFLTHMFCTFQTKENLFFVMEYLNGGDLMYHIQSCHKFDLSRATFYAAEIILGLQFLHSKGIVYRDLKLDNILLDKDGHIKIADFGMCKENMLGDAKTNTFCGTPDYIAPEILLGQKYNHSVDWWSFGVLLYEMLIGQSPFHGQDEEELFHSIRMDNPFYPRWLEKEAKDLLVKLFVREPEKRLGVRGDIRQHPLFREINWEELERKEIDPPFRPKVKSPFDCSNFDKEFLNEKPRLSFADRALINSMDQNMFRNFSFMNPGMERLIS

Broadly, the melting point is the temperature of the solid-liquid transition. As a reminder, the IC50 is the concentration that inhibits the measured activity by half. Low readings indicate inhibition by little substance, high ones a need for much substance. As for `CN1CCN(CCC#Cc2cc3c(Nc4ccc5[nH]ccc5c4)c(C#N)cnc3s2)CC1` [Compound 221, 4-(1H-indol-5-ylamino)-2-[4-(4-methylpiperazin-1-yl)but-1-yn-1-yl]thieno[2,3-b]pyridine-5-carbonitrile], the melting point was 195 to 197 °C. In series [1], this compound had an IC50 of 170 nM.

The compound `COC(=O)c1cc2c(Nc3ccc4[nH]ccc4c3C)c(C#N)cnc2s1` [Compound 245, methyl 5-cyano-4-[(4-methyl-1H-indol-5-yl)amino]thieno[2,3-b]pyridine-2-carboxylate] came in with a melting point of 255 °C. Besides, in series [1], the IC50 came out at 68 nM.

On to `Cc1c(Nc2c(C#N)cnc3sc(C(=O)O)cc23)ccc2[nH]ccc12` [Compound 247, 5-cyano-4-[(4-methyl-1H-indol-5-yl)amino]thieno[2,3-b]pyridine-2-carboxylic acid], for which the melting point was 287 °C. In addition, the IC50 in series [1] is 219 nM.

In turn, `N#Cc1cnc2sc(C(=O)O)cc2c1Nc1ccc2[nH]ccc2c1` [Compound 248, 5-cyano-4-(1H-indol-5-ylamino)thieno[2,3-b]pyridine-2-carboxylic acid] had a melting point of more than 250 °C. In addition, the IC50 in series [1] was 2050 nM.

Compound `Cc1c(Nc2c(C#N)cnc3sc(C(=O)N4CCCC4)cc23)ccc2[nH]ccc12` [Compound 249, 4-[(4-methyl-1H-indol-5-yl)amino]-2-(pyrrolidin-1-ylcarbonyl)thieno[2,3-b]pyridine-5-carbonitrile] showed a melting point of 256 °C. The compound further yielded a concentration for half-maximal inhibition (IC50) in series [1] of 48 nM.

Consider `N#Cc1cnc2sc(CN3CCCC3)cc2c1Nc1ccc2[nH]ccc2c1` [Compound 267, 4-(1H-indol-5-ylamino)-2-(pyrrolidin-1-ylmethyl)thieno[2,3-b]pyridine-5-carbonitrile], for which the melting point is 212 to 215 °C. The compound further had an IC50 in series [1] of 3210 nM.

Compound `CCCCc1cc2c(Nc3ccc4[nH]ccc4c3)c(C#N)cnc2s1` [Compound 271, 2-butyl-4-(1H-indol-5-ylamino)thieno[2,3-b]pyridine-5-carbonitrile] returned a melting point of 210 °C. This compound also showed a concentration for half-maximal inhibition (IC50) in series [1] of 1160 nM.

On to `CN1CCN(CC/C=C/c2cc3c(Nc4ccc5[nH]ccc5c4)c(C#N)cnc3s2)CC1` [Compound 273, 4-(1H-indol-5-ylamino)-2-[(1E)-4-(4-methylpiperazin-1-yl)but-1-en-1-yl]thieno[2,3-b]pyridine-5-carbonitrile], for which the melting point stood at 220 °C. In series [1], the IC50 came out at 447 nM.

For the compound `CN1CCN(CCCCc2cc3c(Nc4ccc5[nH]ccc5c4)c(C#N)cnc3s2)CC1` [Compound 274, 4-(1H-indol-5-ylamino)-2-[4-(4-methylpiperazin-1-yl)butyl]thieno[2,3-b]pyridine-5-carbonitrile], the melting point was 120 °C (dec.). Moreover, in series [1], the IC50 amounted to 983 nM.

For the compound `CCOC(=O)/C=C/c1cc2c(Nc3ccc4[nH]ccc4c3)c(C#N)cnc2s1` [Compound 280, ethyl (2E)-3-[5-cyano-4-(1H-indol-5-ylamino)thieno[2,3-b]pyridin-2-yl]acrylate], the melting point worked out at 226 °C. For the same compound, the IC50 in series [1] amounted to 605 nM.

Consider `N#Cc1cnc2sc(/C=C/C(=O)O)cc2c1Nc1ccc2[nH]ccc2c1` [Compound 281, (2E)-3-[5-cyano-4-(1H-indol-5-ylamino)thieno[2,3-b]pyridin-2-yl]acrylic acid], for which the melting point was 230 °C (dec.). This compound also had an IC50 in series [1] of 1960 nM.

Compound `Cc1c(Nc2c(C#N)cnc3sc(/C=C/C(=O)O)cc23)ccc2[nH]ccc12` [Compound 283, (2E)-3-{5-cyano-4-[(4-methyl-1H-indol-5-yl)amino]thieno[2,3-b]pyridin-2-yl}acrylic acid] returned a melting point of more than 350 °C. The 50% inhibitory concentration (IC50) in series [1] stood at 21 nM.

For `CCOC(=O)CCc1cc2c(Nc3ccc4[nH]ccc4c3)c(C#N)cnc2s1` [Compound 284, ethyl 3-[5-cyano-4-(1H-indol-5-ylamino)thieno[2,3-b]pyridin-2-yl]propanoate], the melting point is 202 °C. In series [1], the IC50 was 657 nM.

For `N#Cc1cnc2sc(CCC(=O)O)cc2c1Nc1ccc2[nH]ccc2c1` [Compound 285, 3-[5-cyano-4-(1H-indol-5-ylamino)thieno[2,3-b]pyridin-2-yl]propanoic acid], the melting point is 255 °C. This compound also registered a concentration for half-maximal inhibition (IC50) in series [1] of 5020 nM.

As to `Cc1c(Nc2c(C#N)cnc3sc(/C=C/C(=O)O)c(C)c23)ccc2[nH]ccc12` [Compound 287, (2E)-3-{5-Cyano-3-methyl-4-[(4-methyl-1H-indol-5-yl)amino]thieno[2,3-b]pyridin-2-yl}acrylic acid], the melting point came out at 329 °C. Besides, in series [1], the IC50 stood at 47 nM.

`Cc1c(Nc2c(C#N)cnc3sc(CCC(=O)N4CCCC4)cc23)ccc2[nH]ccc12` [Compound 315, 4-[(4-methyl-1H-indol-5-yl)amino]-2-(3-oxo-3-pyrrolidin-1-ylpropyl)thieno[2,3-b]pyridine-5-carbonitrile] displayed a melting point of 175 °C. The compound also came in with an IC50 in series [1] of 251 nM.

Turning to `N#Cc1cnc2sc(CCc3ccccc3)cc2c1Nc1ccc2[nH]ccc2c1` [Compound 316, 4-(1H-Indol-5-ylamino)-2-(2-phenylethyl)thieno[2,3-b]pyridine-5-carbonitrile], the melting point is 150 °C (dec.). This compound yielded an IC50 in series [1] of 1690 nM.

In the case of `CN(C)Cc1cccc(-c2cc3c(Nc4ccc5[nH]ccc5c4)c(C#N)cnc3s2)n1` [Compound 443, 2-{6-[(dimethylamino)methyl]pyridin-2-yl}-4-(1H-indol-5-ylamino)thieno[2,3-b]pyridine-5-carbonitrile], the melting point lay in the range of 198 to 200 °C. The same compound showed an IC50 in series [1] of 125 nM.

As to `Cc1c(Nc2c(C#N)cnc3sc(C#Cc4cc(CN(C)C)ccn4)cc23)ccc2[nH]ccc12` [Compound 444, 2-({4-[(dimethylamino)methyl]pyridin-2-yl}ethynyl)-4-[(4-methyl-1H-indol-5-yl)amino]thieno[2,3-b]pyridine-5-carbonitrile], the melting point was more than 250 °C. For the same compound, in series [1], the IC50 is 176 nM.

For `Cc1c(Nc2c(C#N)cnc3sc(C#Cc4ccc(N(C)C)nc4)cc23)ccc2[nH]ccc12` [Compound 445, 2-{[6-(dimethylamino)pyridin-3-yl]ethynyl}-4-[(4-methyl-1H-indol-5-yl)amino]thieno[2,3-b]pyridine-5-carbonitrile], the melting point was more than 260 °C. In series [1], this compound returned an IC50 of 550 nM.

`Cc1c(Nc2c(C#N)cnc3sc(C#Cc4coc(CN5CCN(C)CC5)c4)cc23)ccc2[nH]ccc12` [Compound 447, 4-[(4-methyl-1H-indol-5-yl)amino]-2-({5-[(4-methylpiperazin-1-yl)methyl]-3-furyl}ethynyl)thieno[2,3-b]pyridine-5-carbonitrile] registered a melting point of 216 to 218 °C. In series [1], this compound displayed an IC50 of 171 nM.

Take `Cc1c(Nc2c(C#N)cnc3sc(C#Cc4ccc(CN(C)C)s4)cc23)ccc2[nH]ccc12` [Compound 448, 2-({5-[(dimethylamino)methyl]-2-thienyl}ethynyl)-4-[(4-methyl-1H-indol-5-yl)amino]thieno[2,3-b]pyridine-5-carbonitrile]: the melting point was 185 to 187 °C. The IC50 in series [1] amounted to 83 nM.

The compound `Cc1c(Nc2c(C#N)cnc3sc(C#Cc4ccc(CN(C)C)o4)cc23)ccc2[nH]ccc12` [Compound 449, 2-({5-[(dimethylamino)methyl]-2-furyl}ethynyl)-4-[(4-methyl-1H-indol-5-yl)amino]thieno[2,3-b]pyridine-5-carbonitrile] yielded a melting point of 218 to 220 °C. Also, the IC50 in series [1] stood at 25 nM.

Turning to `Cc1c(Nc2c(C#N)cnc3sc(C#Cc4cncc(C(=O)N(C)C)c4)cc23)ccc2[nH]ccc12` [Compound 451, 5-({5-cyano-4-[(4-methyl-1H-indol-5-yl)amino]thieno[2,3-b]pyridin-2-yl}ethynyl)-N,N-dimethylnicotinamide], the melting point is more than 260 °C. The compound further displayed an IC50 in series [1] of 24 nM.

As for `Cc1c(Nc2c(C#N)cnc3sc(C#Cc4cncc(CN(C)C)c4)cc23)ccc2[nH]ccc12` [Compound 452, 2-({5-[(dimethylamino)methyl]pyridin-3-yl}ethynyl)-4-[(4-methyl-1H-indol-5-yl)amino]thieno[2,3-b]pyridine-5-carbonitrile], the melting point was 130 °C (dec.). The compound also registered an IC50 in series [1] of 18 nM.

Consider `Cc1c(Nc2c(C#N)cnc3sc(C#Cc4ccc(CN(C)C)nc4)cc23)ccc2[nH]ccc12` [Compound 453, 2-({6-[(dimethylamino)methyl]pyridin-3-yl}ethynyl)-4-[(4-methyl-1H-indol-5-yl)amino]thieno[2,3-b]pyridine-5-carbonitrile], for which the melting point fell in the range of 230 to 232 °C. This compound also yielded an IC50 in series [1] of 60 nM.

As for `Cc1c(Nc2c(C#N)cnc3sc(C4=CCN(S(C)(=O)=O)CC4)cc23)ccc2[nH]ccc12` [Compound 475, 4-[(4-methyl-1H-indol-5-yl)amino]-2-[1-(methylsulfonyl)-1,2,3,6-tetrahydropyridin-4-yl]thieno[2,3-b]pyridine-5-carbonitrile], the melting point was found to be 228 °C. Moreover, it took 31 nM to reach half-maximal inhibition in series [1] (IC50).

Compound `Cc1c(Nc2c(C#N)cnc3sc(C4=CCN(C)CC4)cc23)ccc2[nH]ccc12` [Compound 477, 4-[(4-Methyl-1H-indol-5-yl)amino]-2-(1-methyl-1,2,3,6-tetrahydropyridin-4-yl)thieno[2,3-b]pyridine-5-carbonitrile] showed a melting point of 230 °C. For the same compound, the IC50 in series [1] was 41 nM.

As to `Cc1c(Nc2c(C#N)cnc3sccc23)ccc2[nH]ccc12` [Compound 480, 4-[(4-methyl-1H-indol-5-yl)amino]thieno[2,3-b]pyridine-5-carbonitrile], the melting point was determined as 255 °C. This compound came in with an IC50 in series [1] of 67 nM.
